Values after ≈ are worked out from the molar mass of the structure shown.
Columns and labels:
[1] = system: K562/adr (drug-resistant, chronic myeloid leukemia, CML); experiment: MTT growth inhibition of leukemia cells, 72 h; assay type: cell-based, human; conditions: Homo sapiens, K562/Adr; for IC50: read-out: IC50; for IC90: read-out: IC90
Text: (§1) Leukemia cell lines: leukemia cell lines: K562/adr (drug-resistant, chronic myeloid leukemia, CML), NB4 (acute promyelocytic leukemia, AML), Kasumi-1 (acute myeloid leukemia M2 type, AML-M2), and Jurkat (acute lymphoblastic leukemia, ALL), all of which are donated by Cancer Research Institute of Zhejiang University, China; and H9 (acute lymphoblastic leukemia, ALL), which is purchased from China Center for Type Culture Collection (CCTCC).
(§2) The standard sample of tanshinone I (TA) and the 2-aminated methylene or 2-esterified methylene tanshinone I derivatives of the present invention are sufficiently dissolved with dimethylsulfoxide to produce a stock solution of 10 mg/mL, which is refrigerated at 4° C. and stored in dark, and is diluted with a cell culture medium to the desired concentration prior to experimentation.
(§3) Obtaining 6000 well-growing leukemia cells and inoculating them into wells of a 96-well cell culture plate. The culture medium is the RPMI-1640 cell culture medium containing 10% fetal bovine serum. After adding on the second day the 2-aminated methylene or 2-esterified methylene tanshinone I derivatives of different concentrations and mixing uniformly, placing the plate in a carbon dioxide cell incubator (5% CO2) at 37° C. and incubated for 72 hours. Then the viable cell concentration is determined by MTT method.

[2] = system: H9 (acute lymphoblastic leukemia, ALL); experiment: MTT growth inhibition of leukemia cells, 72 h; assay type: cell-based, human; conditions: for IC50 / IC90: Homo sapiens, H9, 72 h; for IC50: read-out: IC50; for IC90: read-out: IC90
Text: as §1, §2, §3

[3] = system: Jurkat (acute lymphoblastic leukemia, ALL); experiment: MTT growth inhibition of leukemia cells, 72 h; assay type: cell-based, human; conditions: Homo sapiens, 72 h; for IC50: read-out: IC50; for IC90: read-out: IC90
Text: as §1, §2, §3

[4] = system: NB4 (acute promyelocytic leukemia, AML); experiment: MTT growth inhibition of leukemia cells, 72 h; assay type: cell-based, human; conditions: for IC50 / IC90: Homo sapiens, NB4, 72 h; for IC50: read-out: IC50; for IC90: read-out: IC90
Text: as §1, §2, §3

[5] = system: Kasumi-1 (acute myeloid leukemia M2 type, AML-M2); experiment: MTT growth inhibition of leukemia cells, 72 h; assay type: cell-based, human; conditions: Homo sapiens, Kasumi-1, 72 h; for IC50: read-out: IC50; for IC90: read-out: IC90
Text: as §1, §2, §3

[6] = system: RPMI8226 (multiple myeloma); experiment: MTT growth inhibition of multiple myeloma cells, 72 h; assay type: cell-based, human; conditions: Homo sapiens, RPMI 8226, 72 h; for IC50: read-out: IC50; for IC90: read-out: IC90
Experimental: Myeloma cell lines: RPMI8226 (multiple myeloma), purchased from Fuxiang Bio-tech Co. Ltd., Shanghai, China.
as §2
as §3, with “myeloma” for “leukemia”, “cells as above” for “cells”, “1640” for “RPMI-1640”, “adding” for “adding on the second day”

[7] = system: Becap37 (human breast cancer cell); experiment: MTT growth inhibition of human solid tumor cells, 72 h; assay type: cell-based; conditions: Homo sapiens, Becap-37, 72 h; for IC50: read-out: IC50; for IC90: read-out: IC90
Experimental: (§4) Hep-2 (laryngeal carcinoma), A549 (human lung cancer), CaES-17 (esophageal cancer cell), PC-3 (prostate cancer), CNE (nasopharyngeal carcinoma cell), and SK-OV-3 (ovarian cancer cell), all of which are purchased from China Center For Type Culture Collection; RKO (human colon adenocarcinoma cell), MGC 803 (human gastric cancer cell), MG63 (osteosarcoma) and U87 MG (malignant glioma cell), all of which are purchased from Fuxiang Bio-tech Co. Ltd., Shanghai, China; PANC-1 (pancreatic cancer), Hep G2 (human liver cancer cell), Becap37 (human breast cancer cell) and Hela (human cervical cancer cell), all of which are donated by Cancer Research Institute of Zhejiang University, China.
as §2
(§5) Obtaining 4000 well-growing human solid tumor cells and inoculating them into wells of a 96-well cell culture plate. The culture medium is DMEM High Glucose cell culture medium containing 10% fetal bovine serum. The plate is placed in a carbon dioxide cell incubator (5% CO2) at 37° C. and incubated for 24 hours. After adding the 2-aminated methylene or 2-esterified methylene tanshinone I derivatives of different concentrations and mixing uniformly, the plate is placed in a carbon dioxide cell incubator (5% CO2) at 37° C. and incubated for 72 hours. Then the viable cell concentration is determined by the MTT method.

[8] = system: Hela (human cervical cancer cell); experiment: as above; assay type: cell-based; conditions: Homo sapiens, HeLa, 72 h; for IC50: read-out: IC50; for IC90: read-out: IC90
Experimental: as §4, §2, §5

[9] = system: A549 (human lung cancer); experiment: as above; assay type: cell-based; conditions: Homo sapiens, A549, 72 h; for IC50: read-out: IC50; for IC90: read-out: IC90
Experimental: as §4, §2, §5

[10] = system: PC-3 (prostate cancer); experiment: as above; assay type: cell-based; conditions: Homo sapiens, PC-3, 72 h; for IC50: read-out: IC50; for IC90: read-out: IC90
Experimental: as §4, §2, §5

[11] = system: SK-OV-3 (ovarian cancer cell); experiment: as above; assay type: cell-based; conditions: Homo sapiens, SK-OV-3, 72 h; for IC50: read-out: IC50; for IC90: read-out: IC90
Experimental: as §4, §2, §5

[12] = system: MGC 803 (human gastric cancer cell); experiment: as above; assay type: cell-based; conditions: Homo sapiens, MGC-803, 72 h; for IC50: read-out: IC50; for IC90: read-out: IC90
Experimental: as §4, §2, §5

[13] = system: U87 MG (malignant glioma cell); experiment: as above; assay type: cell-based; conditions: for IC50 / IC90: Homo sapiens, U-87 MG, U87-MG, 72 h; for IC50: read-out: IC50; for IC90: read-out: IC90
Experimental: as §4, §2, §5

[14] = system: Hep-2 (laryngeal carcinoma); experiment: as above; assay type: cell-based; conditions: Homo sapiens, HEp-2, 72 h; for IC50: read-out: IC50; for IC90: read-out: IC90
Experimental: as §4, §2, §5

[15] = system: MG63 (osteosarcoma); experiment: as above; assay type: cell-based; conditions: Homo sapiens, MG-63, 72 h; for IC50: read-out: IC50; for IC90: read-out: IC90
Experimental: as §4, §2, §5

[16] = system: PANC-1 (pancreatic cancer); experiment: as above; assay type: cell-based; conditions: Homo sapiens, PANC-1, 72 h; for IC50: read-out: IC50; for IC90: read-out: IC90
Experimental: as §4, §2, §5

[17] = system: RKO (human colon adenocarcinoma cell); experiment: as above; assay type: cell-based; conditions: Homo sapiens; for IC50: read-out: IC50; for IC90: read-out: IC90
Experimental: as §4, §2, §5

[18] = system: Hep G2 (human liver cancer cell); experiment: as above; assay type: cell-based; conditions: Homo sapiens, HepG2, Hep G2, 72 h; for IC50: read-out: IC50; for IC90: read-out: IC90
Experimental: as §4, §2, §5

[19] = system: CaES-17 (esophageal cancer cell); experiment: as above; assay type: cell-based; conditions: Homo sapiens, CaEs17, CaEs-17, 72 h; for IC50: read-out: IC50; for IC90: read-out: IC90
Experimental: as §4, §2, §5

[20] = system: CNE (nasopharyngeal carcinoma cell); experiment: as above; assay type: cell-based; conditions: Homo sapiens; for IC50: read-out: IC50; for IC90: read-out: IC90
Experimental: as §4, §2, §5

Compound: Cc1c(CNCCO)oc2c1C(=O)C(=O)c1c-2ccc2c(C)cccc12 [BS-TA-65]
- IC50 [1]: 0.16 µg/mL (≈ 0.458 µM)
- IC90 [1]: 1.08 µg/mL (≈ 3.09 µM)
- improvement of anti-H9 activity as compared with tanshinone I ([2]; H9, vs tanshinone I): 27 fold
- IC50 [2]: 0.13 µg/mL (≈ 0.372 µM)
- IC90 [2]: 0.41 µg/mL (≈ 1.17 µM)
- IC50 [3]: 0.17 µg/mL (≈ 0.487 µM)
- IC90 [3]: 0.47 µg/mL (≈ 1.35 µM)
- IC50 [4]: 0.04 µg/mL (≈ 0.114 µM)
- IC90 [4]: 0.08 µg/mL (≈ 0.229 µM)
- improvement of anti-NB4 activity as compared with tanshinone I ([4]; NB4, vs tanshinone I): 24 fold
- IC50 [5]: 0.074 µg/mL (≈ 0.212 µM)
- IC90 [5]: 0.12 µg/mL (≈ 0.343 µM)
- IC50 [6]: 0.125 µg/mL (≈ 0.358 µM)
- IC90 [6]: 0.25 µg/mL (≈ 0.716 µM)
- IC50 [7]: 0.27 µg/mL (≈ 0.773 µM)
- IC90 [7]: 0.68 µg/mL (≈ 1.95 µM)
- IC50 [8]: 0.42 µg/mL (≈ 1.2 µM)
- IC90 [8]: 1 µg/mL (≈ 2.86 µM)
- IC50 [9]: 0.979 µg/mL (≈ 2.8 µM)
- IC90 [9]: 3.52 µg/mL (≈ 10.1 µM)
- IC50 [10]: 0.44 µg/mL (≈ 1.26 µM)
- IC90 [10]: 3.58 µg/mL (≈ 10.2 µM)
- IC50 [11]: 0.86 µg/mL (≈ 2.46 µM)
- IC90 [11]: 1.91 µg/mL (≈ 5.47 µM)
- IC50 [12]: 0.15 µg/mL (≈ 0.429 µM)
- IC90 [12]: 1.7 µg/mL (≈ 4.87 µM)
- IC50 [13]: 0.15 µg/mL (≈ 0.429 µM)
- IC90 [13]: 0.35 µg/mL (≈ 1 µM)
- improvement of anti-U87 MG activity as compared with tanshinone I ([13]; U87 MG, vs tanshinone I): more than 42 fold
- IC50 [14]: 0.78 µg/mL (≈ 2.23 µM)
- IC90 [14]: 2.38 µg/mL (≈ 6.81 µM)
- IC50 [15]: 0.31 µg/mL (≈ 0.887 µM)
- IC90 [15]: 0.98 µg/mL (≈ 2.8 µM)
- IC50 [16]: 0.26 µg/mL (≈ 0.744 µM)
- IC90 [16]: 1.9 µg/mL (≈ 5.44 µM)
- IC50 [17]: 0.037 µg/mL (≈ 0.106 µM)
- IC90 [17]: 0.29 µg/mL (≈ 0.83 µM)
- IC50 [18]: 0.31 µg/mL (≈ 0.887 µM)
- IC90 [18]: 1.5 µg/mL (≈ 4.29 µM)
- IC50 [19]: 0.3 µg/mL (≈ 0.859 µM)
- IC90 [19]: 0.81 µg/mL (≈ 2.32 µM)
- IC50 [20]: 0.6 µg/mL (≈ 1.72 µM)
- IC90 [20]: 1.8 µg/mL (≈ 5.15 µM)

Compound: Cc1c(CN(C)CCOC(=O)CCC(=O)O)oc2c1C(=O)C(=O)c1c-2ccc2c(C)cccc12 [BS-TA-73]
- IC50 [1]: 1.38 µg/mL (≈ 2.98 µM)
- IC90 [1]: 2.74 µg/mL (≈ 5.91 µM)
- IC50 [2]: 0.19 µg/mL (≈ 0.41 µM)
- IC90 [2]: 0.97 µg/mL (≈ 2.09 µM)
- IC50 [3]: 0.98 µg/mL (≈ 2.11 µM)
- IC90 [3]: 3.4 µg/mL (≈ 7.34 µM)
- IC50 [4]: 0.21 µg/mL (≈ 0.453 µM)
- IC90 [4]: 0.68 µg/mL (≈ 1.47 µM)
- IC50 [5]: 0.27 µg/mL (≈ 0.583 µM)
- IC90 [5]: 0.73 µg/mL (≈ 1.58 µM)
- IC50 [6]: 0.38 µg/mL (≈ 0.82 µM)
- IC90 [6]: 1.55 µg/mL (≈ 3.34 µM)
- IC50 [7]: 1.06 µg/mL (≈ 2.29 µM)
- IC90 [7]: 1.91 µg/mL (≈ 4.12 µM)
- IC50 [8]: 1 µg/mL (≈ 2.16 µM)
- IC90 [8]: 3.81 µg/mL (≈ 8.22 µM)
- IC50 [9]: 1.72 µg/mL (≈ 3.71 µM)
- IC90 [9]: 4.79 µg/mL (≈ 10.3 µM)
- IC50 [10]: 1.73 µg/mL (≈ 3.73 µM)
- IC90 [10]: 7.04 µg/mL (≈ 15.2 µM)
- IC50 [11]: 3.54 µg/mL (≈ 7.64 µM)
- IC90 [11]: 7.27 µg/mL (≈ 15.7 µM)
- IC50 [12]: 0.84 µg/mL (≈ 1.81 µM)
- IC90 [12]: 4.9 µg/mL (≈ 10.6 µM)
- IC50 [13]: 1.19 µg/mL (≈ 2.57 µM)
- IC90 [13]: 3.44 µg/mL (≈ 7.42 µM)
- IC50 [14]: 0.81 µg/mL (≈ 1.75 µM)
- IC90 [14]: 3.21 µg/mL (≈ 6.93 µM)
- IC50 [15]: 1.01 µg/mL (≈ 2.18 µM)
- IC90 [15]: 3.71 µg/mL (≈ 8 µM)
- IC50 [16]: 1.07 µg/mL (≈ 2.31 µM)
- IC90 [16]: 5 µg/mL (≈ 10.8 µM)
- IC50 [17]: 0.2 µg/mL (≈ 0.432 µM)
- IC90 [17]: 0.87 µg/mL (≈ 1.88 µM)
- IC50 [18]: 1.39 µg/mL (≈ 3 µM)
- IC90 [18]: 4.64 µg/mL (≈ 10 µM)
- IC50 [19]: 1.14 µg/mL (≈ 2.46 µM)
- IC90 [19]: 1.86 µg/mL (≈ 4.01 µM)
- IC50 [20]: 1.38 µg/mL (≈ 2.98 µM)
- IC90 [20]: 3.7 µg/mL (≈ 7.98 µM)

Source: US9328083B2, “2-aminated methylene or 2-esterified methylene tanshinone derivatives, and preparation method and application thereof” (HANGZHOU BENSHENG PHARMACEUTICAL CO., LTD., priority 2011, dated 2016)
